# Measured values taken from PubChem BioAssay AID328 (DTP/NCI, 2004).
# Several values for one entry are separate records, joined by “and”; a condition that tells them apart may be missing. Equal values may be shown once. Toxic doses and inconclusive results are not listed.
# Test system: BDF1 mice, P388 leukemia ip, median survival T/C
# Assay: NCI In Vivo Anticancer Drug Screen. Data for tumor model P388 Leukemia (intraperitoneal) in B6D2F1 (BDF1) mice
# Settings: endpoint: median survival time, higher = longer survival
# Method in brief: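 Reported as T/C, where T is the survival measurement in dosed animals and C the same measurement in vehicle controls.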
# [1] = dose: 100.0 mg/kg/injection, schedule: Q01DX009 (ip), vehicle: saline with Tween-80
# [2] = dose: 200.0 mg/kg/injection, schedule: Q01DX009 (ip), vehicle: saline with Tween-80
# [3] = dose: 400.0 mg/kg/injection, schedule: Q01DX009 (ip), vehicle: saline with Tween-80
# [4] = dose: 100.0 mg/kg/injection, schedule: Q01DX009 (ip), vehicle: Klucel (hydroxypropylcellulose) (HPC)
# [5] = dose: 200.0 mg/kg/injection, schedule: Q01DX009 (ip), vehicle: Klucel (hydroxypropylcellulose) (HPC)
# [6] = dose: 50.0 mg/kg/injection, schedule: Q01DX009 (ip), vehicle: saline with Tween-80
# [7] = dose: 25.0 mg/kg/injection, schedule: Q01DX009 (ip), vehicle: saline with Tween-80
# [8] = dose: 100.0 mg/kg/injection, schedule: Q04DX003 (ip), vehicle: saline
# [9] = dose: 200.0 mg/kg/injection, schedule: Q04DX003 (ip), vehicle: saline
# [10] = dose: 400.0 mg/kg/injection, schedule: Q04DX003 (ip), vehicle: saline
# [11] = dose: 12.5 mg/kg/injection, schedule: Q01DX009 (ip), vehicle: saline with Tween-80
# [12] = dose: 100.0 mg/kg/injection, schedule: Q04DX003 (ip), vehicle: saline with Tween-80
# [13] = dose: 200.0 mg/kg/injection, schedule: Q04DX003 (ip), vehicle: saline with Tween-80
# [14] = dose: 400.0 mg/kg/injection, schedule: Q04DX003 (ip), vehicle: saline with Tween-80
compound,measurement,setting,value
O=[N+]([O-])c1ccc(S(=O)c2ccc([N+](=O)[O-])c3nonc23)cc1 (stereo not given),T/C,"dose: 15.0 mg/kg/injection, schedule: Q01DX009 (ip), vehicle: saline with Tween-80",90 % of control
same,T/C,"dose: 30.0 mg/kg/injection, schedule: Q01DX009 (ip), vehicle: saline with Tween-80",97 % of control
CC(=O)c1cc(C)[nH]c1C,T/C,"dose: 200.0 mg/kg/injection, schedule: Q04DX003 (ip), vehicle: saline sonified",115 % of control
same,T/C,"dose: 400.0 mg/kg/injection, schedule: Q04DX003 (ip), vehicle: saline sonified",100 % of control
O=C(O)CCN1C(=O)c2ccccc2C1=O,T/C,[1],90 % of control
same,T/C,[2],100 % of control
CN(C)CCCN=C1Nc2ccccc2C(=NCCCN(C)C)Nc2ccccc21,T/C,"dose: 12.5 mg/kg/injection, schedule: Q01DX009 (ip), vehicle: saline",104 % of control
same,T/C,"dose: 12.5 mg/kg/injection, schedule: Q04DX003 (ip), vehicle: saline",100 % of control
same,T/C,"dose: 25.0 mg/kg/injection, schedule: Q01DX009 (ip), vehicle: saline",95 % of control
same,T/C,"dose: 25.0 mg/kg/injection, schedule: Q04DX003 (ip), vehicle: saline",88 % of control
same,T/C,"dose: 50.0 mg/kg/injection, schedule: Q01DX009 (ip), vehicle: saline",100 % of control
same,T/C,"dose: 50.0 mg/kg/injection, schedule: Q04DX003 (ip), vehicle: saline",111 % of control
C1CCCC(NC2=NCCO2)CCC1,T/C,"dose: 6.25 mg/kg/injection, schedule: Q04DX003 (ip), vehicle: saline with Tween-80",100 % of control
same,T/C,"dose: 12.5 mg/kg/injection, schedule: Q04DX003 (ip), vehicle: saline with Tween-80",109 % of control
same,T/C,"dose: 25.0 mg/kg/injection, schedule: Q04DX003 (ip), vehicle: saline with Tween-80",95 % of control
Cc1[nH]ncc1Br,T/C,[1],105 % of control
same,T/C,[2],98 % of control
same,T/C,[3],105 % of control
COc1ccccc1NC(=O)c1ccc(Cl)cc1,T/C,[4],100 % of control
same,T/C,"dose: 100.0 mg/kg/injection, schedule: Q04DX003 (ip), vehicle: Klucel (hydroxypropylcellulose) (HPC)",100 % of control
same,T/C,[5],100 % of control
same,T/C,"dose: 200.0 mg/kg/injection, schedule: Q04DX003 (ip), vehicle: Klucel (hydroxypropylcellulose) (HPC)",100 % of control
same,T/C,"dose: 400.0 mg/kg/injection, schedule: Q01DX009 (ip), vehicle: Klucel (hydroxypropylcellulose) (HPC)",104 % of control
same,T/C,"dose: 400.0 mg/kg/injection, schedule: Q04DX003 (ip), vehicle: Klucel (hydroxypropylcellulose) (HPC)",109 % of control
CCCCCCCCC(CO)CO,T/C,[6],100 % of control
same,T/C,[1],92 % of control
same,T/C,[2],95 % of control
Cc1cnc2c(C)cccc2c1/C=C/c1ccc(N(C)C)cc1,T/C,[6],116 % of control
same,T/C,[1],116 % of control
same,T/C,[2],103 % of control
Oc1cccc2c1[O][Sb][O]2,T/C,"dose: 3.0 mg/kg/injection, schedule: Q01DX009 (ip), vehicle: saline with Tween-80",102 % of control
same,T/C,"dose: 6.0 mg/kg/injection, schedule: Q01DX009 (ip), vehicle: saline with Tween-80",110 % of control
same,T/C,"dose: 11.0 mg/kg/injection, schedule: Q04DX003 (ip), vehicle: saline with Tween-80",112 % of control
same,T/C,"dose: 16.5 mg/kg/injection, schedule: Q04DX003 (ip), vehicle: saline with Tween-80",112 % of control
same,T/C,[7],110 % of control
Cc1ccccc1Nc1n[nH]c(=S)s1,T/C,[6],95 % of control
same,T/C,[1],95 % of control
same,T/C,[2],104 % of control
Cc1ccc2c(c1)nc1c3ccccc3nc(-c3ccccc3N)n21,T/C,[1],97 % of control
same,T/C,[2],115 % of control
same,T/C,[3],108 % of control
CC(C)c1nsc(N)c1C(N)=O,T/C,[6],92 % of control
same,T/C,[1],96 % of control
CC(N)C(=O)NCC(=O)NCC(=O)O (stereo not given),T/C,"dose: 100.0 mg/kg/injection, schedule: Q01DX009 (ip), vehicle: saline",95 % of control
same,T/C,[8],104 % of control
same,T/C,"dose: 200.0 mg/kg/injection, schedule: Q01DX009 (ip), vehicle: saline",104 % of control
same,T/C,[9],95 % of control
same,T/C,"dose: 400.0 mg/kg/injection, schedule: Q01DX009 (ip), vehicle: saline",100 % of control
same,T/C,[10],95 % of control
CCOC(=O)C(OCc1ccccc1)C(=O)OCC,T/C,[1],87 % of control
same,T/C,[8],115 % of control
same,T/C,[2],104 % of control
same,T/C,[9],90 % of control
same,T/C,[3],108 % of control
same,T/C,[10],90 % of control
COc1cc2c(c(OC)c1OC)CCc1cnoc1-2,T/C,[6],107 % of control
same,T/C,[1],95 % of control
same,T/C,[2],97 % of control
same,T/C,[3],92 % of control
CCOP(=O)(N1CC1(C)C)N1CC1(C)C (stereo not given),T/C,"dose: 50.0 mg/kg/injection, schedule: Q04DX003 (ip), vehicle: alcohol",110 % of control
same,T/C,"dose: 66.0 mg/kg/injection, schedule: Q04DX003 (ip), vehicle: saline",280 % of control and 172 % of control
same,T/C,[8],272 % of control and 300 % of control
same,T/C,"dose: 150.0 mg/kg/injection, schedule: Q04DX003 (ip), vehicle: saline",272 % of control and 95 % of control
CCOC(=O)C(=O)C[n+]1cc2ccccc2cc1/C=N/O,T/C,"dose: 50.0 mg/kg/injection, schedule: Q01DX001 (ip), vehicle: saline",100 % of control
same,T/C,"dose: 100.0 mg/kg/injection, schedule: Q01DX001 (ip), vehicle: saline",100 % of control
same,T/C,"dose: 200.0 mg/kg/injection, schedule: Q01DX001 (ip), vehicle: saline",100 % of control
[NH-]C(CCC(N)=O)C(=O)O.[NH-]C(CCC(N)=O)C(=O)O.[Zn+2] (stereo not given),T/C,[11],91 % of control
same,T/C,[7],108 % of control
same,T/C,[6],121 % of control
CCCCOCN(COCCCC)C12CC3CC(CC(C3)C1)C2,T/C,[6],120 % of control
CN(C)c1ccc(C(=O)c2ccc(N(C)C)cc2)cc1,T/C,[12],113 % of control
same,T/C,"dose: 118.0 mg/kg/injection, schedule: Q04DX003 (ip), vehicle: saline with Tween-80",108 % of control
same,T/C,"dose: 177.0 mg/kg/injection, schedule: Q04DX003 (ip), vehicle: saline with Tween-80",106 % of control and 110 % of control
same,T/C,[13],109 % of control
same,T/C,"dose: 264.0 mg/kg/injection, schedule: Q04DX003 (ip), vehicle: saline with Tween-80",120 % of control
same,T/C,"dose: 265.0 mg/kg/injection, schedule: Q04DX003 (ip), vehicle: saline with Tween-80",103 % of control
same,T/C,"dose: 266.0 mg/kg/injection, schedule: Q04DX003 (ip), vehicle: saline with Tween-80",100 % of control
same,T/C,[14],105 % of control
COc1cc2c(c(OC)c1OC)CCC1(C)C(=O)NN=C21 (stereo not given),T/C,[4],108 % of control
same,T/C,[5],106 % of control
N#CC1CCCC1=O (stereo not given),T/C,"dose: 5.0 mg/kg/injection, schedule: Q01DX009 (ip), vehicle: saline",108 % of control
same,T/C,"dose: 10.0 mg/kg/injection, schedule: Q01DX009 (ip), vehicle: saline",91 % of control
CC(C(O)c1ccc(Br)cc1)C(O)(C(F)(F)F)C(F)(F)F (stereo not given),T/C,"dose: 100.0 mg/kg/injection, schedule: Q04DX003 (ip), vehicle: other",100 % of control
same,T/C,"dose: 200.0 mg/kg/injection, schedule: Q04DX003 (ip), vehicle: other",100 % of control
same,T/C,"dose: 400.0 mg/kg/injection, schedule: Q04DX003 (ip), vehicle: other",100 % of control
CC(C)CNC(=O)C12CC3CC(CC(C3)C1)C2,T/C,[11],104 % of control
same,T/C,[7],107 % of control
same,T/C,[6],104 % of control
same,T/C,[1],101 % of control
CCOC(=O)C(NC(=O)OCc1ccccc1)(OCc1ccccc1)C(C)C (stereo not given),T/C,[12],97 % of control
same,T/C,[13],105 % of control
same,T/C,[14],94 % of control
CC1COCC(C)N1 (stereo not given),T/C,[8],106 % of control
same,T/C,[9],111 % of control
same,T/C,[10],106 % of control
Nc1nc(N)c2cc(Sc3ccc4ccccc4c3)ccc2n1,T/C,[6],113 % of control
same,T/C,[1],123 % of control
C=CC12COC(=O)C(=C)C1C(O)C(C(=C)C(=O)OC)C(O)C2 (stereo not given),T/C,"dose: 0.5 mg/kg/injection, schedule: Q01DX010 (ip), vehicle: steriod suspending solution",100 % of control
same,T/C,"dose: 1.0 mg/kg/injection, schedule: Q01DX010 (ip), vehicle: steriod suspending solution",109 % of control
same,T/C,"dose: 2.0 mg/kg/injection, schedule: Q01DX010 (ip), vehicle: steriod suspending solution",100 % of control
same,T/C,"dose: 4.0 mg/kg/injection, schedule: Q01DX010 (ip), vehicle: steriod suspending solution",122 % of control
same,T/C,"dose: 10.0 mg/kg/injection, schedule: Q01DX010 (ip), vehicle: steriod suspending solution",109 % of control
COc1cc(/C=N/NC(=O)C(=O)Nc2cccc(Cl)c2)cc(OC)c1O,T/C,"dose: 50.0 mg/kg/injection, schedule: Q01DX005 (ip), vehicle: saline with Tween-80",91 % of control
same,T/C,"dose: 100.0 mg/kg/injection, schedule: Q01DX005 (ip), vehicle: saline with Tween-80",100 % of control
same,T/C,"dose: 200.0 mg/kg/injection, schedule: Q01DX005 (ip), vehicle: saline with Tween-80",100 % of control
